Tested on: anemic DD-CKD patients with prevalent dialysis and established ESA treatment
Assay: Phase 3 Prevalent DD-CKD (Conversion) trial, vadadustat vs darbepoetin alfa
Format: in vivo, human
Conditions: for Ferritin, mean / Hepcidin, mean / TSAT, mean: Prevalent trial
Description: Two randomized Phase 3, open-label, sponsor-blind, active-controlled non-inferiority (NI) trials were conducted in anemic DD-CKD patients with incident dialysis and limited ESA exposure (Correction/Conversion trial) and with prevalent dialysis and established ESA treatment (Conversion trial). The primary safety endpoint was prespecified as the time to first major adverse cardiovascular event (MACE) (all-cause mortality, non-fatal MI, or non-fatal stroke) pooled across the two trials. Primary and key secondary efficacy endpoints were mean change in Hb from baseline [BL] to wks 24-36 and to wks 40-52 between two treatment arms, respectively.
Phase 3, randomized, open-label, active-controlled study of vadadustat vs darbepoetin alfa for the maintenance treatment of anemia after conversion from ESA therapy.
Following a Screening period of up to 8 weeks (56 days), subjects who met all inclusion and none of the exclusion criteria were randomized 1:1 to vadadustat or darbepoetin alfa.
Randomization were stratified by: • Geographic region (United States [US] versus European Union [EU] versus Rest of World [ROW]) • New York Heart Association congestive heart failure (CHF) Class 0 (no CHF) or I versus II or III. • Study entry Hb (<10.0 versus ≥10.0 g/dL).
Following randomization, there were 3 periods during the study: • Conversion and Maintenance Period (Weeks 0 to 52): conversion to study medication for maintaining Hb (Weeks 0-23), primary efficacy evaluation (Weeks 24-36), and secondary efficacy evaluation (Weeks 40-52). • Long-term Treatment Period (Weeks 53 to End of Treatment [EOT]): continued study medication to assess long-term safety. • Follow-up (EOT+4 weeks): post-treatment visit (either in person or via telephone) for safety.
Inclusion Criteria: • ≥18 years of age. • Receiving chronic maintenance dialysis (either peritoneal or hemodialysis) for end-stage kidney disease for at least 12 weeks prior to Screening. • Currently maintained on ESA therapy, with a dose received within 6 weeks prior to or during Screening. • Mean screening Hb between 8.0 and 11.0 g/dL (inclusive) in the US and between 9.0 and 12.0 g/dL (inclusive) outside of the US, as determined by the average of 2 Hb values measured by the central laboratory during Screening. • Serum ferritin ≥100 ng/mL and transferrin saturation (TSAT) 20% during Screening. • Folate and vitamin B12 measurements lower limit of normal during Screening. • Understands the procedures and requirements of the study and provides written informed consent and authorization for protected health information disclosure.
Exclusion Criteria: • Anemia due to a cause other than CKD or subjects with active bleeding or recent blood loss. • History of sickle cell disease, myelodysplastic syndromes, bone marrow fibrosis, hematologic malignancy, myeloma, hemolytic anemia, thalassemia, or pure red cell aplasia. • Red blood cell (RBC) transfusion within 8 weeks prior to randomization. • Anticipated to recover adequate kidney function to no longer require dialysis. • Aspartate aminotransferase (AST)/serum glutamic oxaloacetic transaminase (SGOT), alanine aminotransferase (ALT)/serum glutamic pyruvic transaminase (SGPT), or total bilirubin >2.0×upper limit of normal (ULN) during Screening. […]

`O=C(O)CNC(=O)c1ncc(-c2cccc(Cl)c2)cc1O` [Compound 1, Vadadustat] was tested, and the “Ferritin, mean” value (Baseline) was 846.78 ng/mL, the “Hepcidin, mean” value (Baseline) was 193.86 ng/mL and the “TSAT, mean” value (Baseline) was 38.06%. The “Ferritin, mean” value (Weeks 24-36) was 801.93 ng/mL, the “Hepcidin, mean” value (Weeks 24-36) was 146.95 ng/mL and the “TSAT, mean” value (Weeks 24-36) was 34.77%. The “Ferritin, mean” value (Weeks 40-52) was 787.27 ng/mL, the “Hepcidin, mean” value (Weeks 40-52) was 137.41 ng/mL and the “TSAT, mean” value (Weeks 40-52) was 34.11%. The “proportion of patients requiring RBC transfusions” value (weeks 24-36) was 2.0%, the “proportion of patients with an average hemoglobin value within the geography-specific target range” value (weeks 24-36) was 49.2% and the “mean (SEM) change from baseline in hemoglobin” value (weeks 24 to 36) was 0.19 (0.032) g/dL. The “mean difference between groups (vadadustat vs darbepoetin alfa) in change from baseline in hemoglobin” value (weeks 24 to 36) was −0.17 (0.033) g/dL, the “proportion of patients requiring RBC transfusions” value (weeks 40-52) was 3.7% and the “proportion of patients with an average hemoglobin value within the geography-specific target range” value (weeks 40-52) was 44.3%. The “mean change from baseline in hemoglobin” value (weeks 40 to 52) was 0.23 (0.035) g/dL and the “mean difference between groups (vadadustat vs darbepoetin alfa) in change from baseline in hemoglobin” value (weeks 40 to 52) was −0.18 (0.035) g/dL.

— US20230285374A1, “THERAPEUTIC METHODS USING VADADUSTAT” (Akebia Therapeutics, Inc., priority 2019, published 2023)
